Laboratory results taken from patent US20060178318A1, “Use of aurora kinase inhibitors for reducing the resistance of cancer cells” (priority 2003, published 2006).

Key:
[1] = system: HeLa cells; assay: Taxol sensitivity assay (apoptosis, propidium iodide staining and flow cytometry); assay type: cell-based, human; conditions: Aurora-A-overexpressing vs mock-transfected HeLa cells, different concentrations of Taxol for 72 hr, FIG. 1
Method: 2×10^5 cells in complete growth medium were plated in a 35 mm dish before transfection using the Gene Juice transfection reagent (Novagen, United Kingdom) according to the manufacturer's protocol. GFP-expressing cells were flow sorted as before, 48 hr after transfection. Equal numbers of flow sorted mock-transfected or Aurora-A-transfected HeLa cell were plated on 6 well plates in DMEM (Life Technologies, Grand Island, N.Y.) containing 10% FBS. Taxol (Sigma Chemical Co.) at different concentrations was added fresh from a stock prepared in DMSO. The cells were exposed to the drug for 72 hr after which they were analyzed by propidium iodide staining and flow cytometry as described earlier. Cells collected at the indicated time points were centrifuged at 1000 rpm for 5 min at room temperature. 1×10^6 cells were resuspended in 0.5 ml PBS, fixed by adding 4.5 ml of ice-cold 70% ethanol, and incubated overnight in fixative at 4° C. Before analysis, fixed cells were washed in PBS and incubated with propidium iodide staining solution (0.1% Triton.X-100, PBS; 0.02 mg/ml propidium iodide; 0.2 mg/ml RnaseA) for 30 min at room temperature. […] Ten thousand events were analyzed per sample. […] The percentage of apoptotic cells was then measured using propidium iodide staining and flow cytometry to enumerate the sub G1 (<2N DNA content) population.

[2] = system: HeLa cells; conditions: stated as known; cited from earlier work
[3] = system: tubulin; conditions: compared with paclitaxel; cited from earlier work

Molecule	resistance to paclitaxel-induced apoptosis (percentage of apoptotic cells, sub G1 population) [1]	sensitivity of HeLa cells to Taxol-induced apoptosis [2]	tubulin-assembly activity relative to paclitaxel [3]
CC(=O)O[C@H]1C(=O)[C@@]2(C)[C@H]([C@H](OC(=O)c3ccccc3)[C@]3(O)C[C@H](OC(=O)[C@H](O)[C@@H](NC(=O)c4ccccc4)c4ccccc4)C(C)=C1C3(C)C)[C@]1(OC(C)=O)CO[C@@H]1C[C@@H]2O [paclitaxel]	striking increase in resistance	highly sensitive	–
A-nor-paclitaxel	–	–	only three times less than that of paclitaxel
